pIC50: −log10 of the molar value.
system: 817829-284-R-J1-PDC complex spheroids, viability; test: Anticancer human tumor 817829-284-R-J1-PDC patient-derived colon adenocarcinoma cell line growth inhibition [CLK]; conditions: curve of first compound; second compound 0.0316 µM
Outline: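 Multi-cell-type spheroids combined patient-derived tumor cells with HUVEC endothelial cells and human mesenchymal stem cells. Paired agents were dosed in half-log steps down from about clinical Cmax, or from 10 microM where Cmax was unknown.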
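Also: spheroids exposed to the agents for seven days before readout.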

Structure (SMILES) | pIC50
C#Cc1c(F)ccc2cc(O)cc(-c3ncc4c(N5CC6CCC(C5)N6)nc(OCC56CCCN5CC(F)C6)nc4c3F)c12 (configuration not stated) + CN1CCN(c2cc(C(=O)Nc3cc4cc(-c5cnn(C)c5)ccc4cn3)ccn2)CC1 | 5.30
CC(CO)NC(=O)c1cc(-c2ccc(Cl)cc2)nn(-c2cnn(C)c2)c1=O (configuration not stated) + CN1CCN(c2cc(C(=O)Nc3cc4cc(-c5cnn(C)c5)ccc4cn3)ccn2)CC1 | 5.42
CC(Nc1ccc2c(c1)OCCn1cc(N3C(=O)OCC3C(F)F)nc1-2)C(N)=O (configuration not stated) + CN1CCN(c2cc(C(=O)Nc3cc4cc(-c5cnn(C)c5)ccc4cn3)ccn2)CC1 | 5.49
CCN1CCN(Cc2ccc(Nc3ncc(F)c(-c4cc(F)c5nc(C)n(C(C)C)c5c4)n3)nc2)CC1 + CN1CCN(c2cc(C(=O)Nc3cc4cc(-c5cnn(C)c5)ccc4cn3)ccn2)CC1 | 7.68
COc1c(OCCCN2CCOCC2)ccc2c3n(c(=NC(=O)c4cnc(N)nc4)nc12)CCN3 + CN1CCN(c2cc(C(=O)Nc3cc4cc(-c5cnn(C)c5)ccc4cn3)ccn2)CC1 | 8.05

same assay, conditions: curve of first compound; second compound 0.1 µM

Structure (SMILES) | pIC50
C#Cc1c(F)ccc2cc(O)cc(-c3ncc4c(N5CC6CCC(C5)N6)nc(OCC56CCCN5CC(F)C6)nc4c3F)c12 (configuration not stated) + CN1CCN(c2cc(C(=O)Nc3cc4cc(-c5cnn(C)c5)ccc4cn3)ccn2)CC1 | > 7.50
CC(CO)NC(=O)c1cc(-c2ccc(Cl)cc2)nn(-c2cnn(C)c2)c1=O (configuration not stated) + CN1CCN(c2cc(C(=O)Nc3cc4cc(-c5cnn(C)c5)ccc4cn3)ccn2)CC1 | > 7.50
CC(Nc1ccc2c(c1)OCCn1cc(N3C(=O)OCC3C(F)F)nc1-2)C(N)=O (configuration not stated) + CN1CCN(c2cc(C(=O)Nc3cc4cc(-c5cnn(C)c5)ccc4cn3)ccn2)CC1 | > 7.50
CCN1CCN(Cc2ccc(Nc3ncc(F)c(-c4cc(F)c5nc(C)n(C(C)C)c5c4)n3)nc2)CC1 + CN1CCN(c2cc(C(=O)Nc3cc4cc(-c5cnn(C)c5)ccc4cn3)ccn2)CC1 | > 8.50
COc1c(OCCCN2CCOCC2)ccc2c3n(c(=NC(=O)c4cnc(N)nc4)nc12)CCN3 + CN1CCN(c2cc(C(=O)Nc3cc4cc(-c5cnn(C)c5)ccc4cn3)ccn2)CC1 | > 8.50

same assay, conditions: curve of first compound; second compound 0.316 µM

Structure (SMILES) | pIC50
C#Cc1c(F)ccc2cc(O)cc(-c3ncc4c(N5CC6CCC(C5)N6)nc(OCC56CCCN5CC(F)C6)nc4c3F)c12 (configuration not stated) + CN1CCN(c2cc(C(=O)Nc3cc4cc(-c5cnn(C)c5)ccc4cn3)ccn2)CC1 | > 7.50
CC(CO)NC(=O)c1cc(-c2ccc(Cl)cc2)nn(-c2cnn(C)c2)c1=O (configuration not stated) + CN1CCN(c2cc(C(=O)Nc3cc4cc(-c5cnn(C)c5)ccc4cn3)ccn2)CC1 | > 7.50
CC(Nc1ccc2c(c1)OCCn1cc(N3C(=O)OCC3C(F)F)nc1-2)C(N)=O (configuration not stated) + CN1CCN(c2cc(C(=O)Nc3cc4cc(-c5cnn(C)c5)ccc4cn3)ccn2)CC1 | > 7.50
CCN1CCN(Cc2ccc(Nc3ncc(F)c(-c4cc(F)c5nc(C)n(C(C)C)c5c4)n3)nc2)CC1 + CN1CCN(c2cc(C(=O)Nc3cc4cc(-c5cnn(C)c5)ccc4cn3)ccn2)CC1 | > 8.50
COc1c(OCCCN2CCOCC2)ccc2c3n(c(=NC(=O)c4cnc(N)nc4)nc12)CCN3 + CN1CCN(c2cc(C(=O)Nc3cc4cc(-c5cnn(C)c5)ccc4cn3)ccn2)CC1 | > 8.50

same assay, conditions: curve of first compound; second compound 1 µM

Structure (SMILES) | pIC50
C#Cc1c(F)ccc2cc(O)cc(-c3ncc4c(N5CC6CCC(C5)N6)nc(OCC56CCCN5CC(F)C6)nc4c3F)c12 (configuration not stated) + CN1CCN(c2cc(C(=O)Nc3cc4cc(-c5cnn(C)c5)ccc4cn3)ccn2)CC1 | > 7.50
CC(CO)NC(=O)c1cc(-c2ccc(Cl)cc2)nn(-c2cnn(C)c2)c1=O (configuration not stated) + CN1CCN(c2cc(C(=O)Nc3cc4cc(-c5cnn(C)c5)ccc4cn3)ccn2)CC1 | > 7.50
CC(Nc1ccc2c(c1)OCCn1cc(N3C(=O)OCC3C(F)F)nc1-2)C(N)=O (configuration not stated) + CN1CCN(c2cc(C(=O)Nc3cc4cc(-c5cnn(C)c5)ccc4cn3)ccn2)CC1 | > 7.50
CCN1CCN(Cc2ccc(Nc3ncc(F)c(-c4cc(F)c5nc(C)n(C(C)C)c5c4)n3)nc2)CC1 + CN1CCN(c2cc(C(=O)Nc3cc4cc(-c5cnn(C)c5)ccc4cn3)ccn2)CC1 | > 8.50
COc1c(OCCCN2CCOCC2)ccc2c3n(c(=NC(=O)c4cnc(N)nc4)nc12)CCN3 + CN1CCN(c2cc(C(=O)Nc3cc4cc(-c5cnn(C)c5)ccc4cn3)ccn2)CC1 | > 8.50

same assay, conditions: curve of first compound; second compound 3.16 µM

Structure (SMILES) | pIC50
C#Cc1c(F)ccc2cc(O)cc(-c3ncc4c(N5CC6CCC(C5)N6)nc(OCC56CCCN5CC(F)C6)nc4c3F)c12 (configuration not stated) + CN1CCN(c2cc(C(=O)Nc3cc4cc(-c5cnn(C)c5)ccc4cn3)ccn2)CC1 | > 7.50
CC(CO)NC(=O)c1cc(-c2ccc(Cl)cc2)nn(-c2cnn(C)c2)c1=O (configuration not stated) + CN1CCN(c2cc(C(=O)Nc3cc4cc(-c5cnn(C)c5)ccc4cn3)ccn2)CC1 | > 7.50
CC(Nc1ccc2c(c1)OCCn1cc(N3C(=O)OCC3C(F)F)nc1-2)C(N)=O (configuration not stated) + CN1CCN(c2cc(C(=O)Nc3cc4cc(-c5cnn(C)c5)ccc4cn3)ccn2)CC1 | > 7.50
CCN1CCN(Cc2ccc(Nc3ncc(F)c(-c4cc(F)c5nc(C)n(C(C)C)c5c4)n3)nc2)CC1 + CN1CCN(c2cc(C(=O)Nc3cc4cc(-c5cnn(C)c5)ccc4cn3)ccn2)CC1 | > 8.50
COc1c(OCCCN2CCOCC2)ccc2c3n(c(=NC(=O)c4cnc(N)nc4)nc12)CCN3 + CN1CCN(c2cc(C(=O)Nc3cc4cc(-c5cnn(C)c5)ccc4cn3)ccn2)CC1 | > 8.50

same assay, conditions: curve of first compound; second compound 10 µM

Structure (SMILES) | pIC50
C#Cc1c(F)ccc2cc(O)cc(-c3ncc4c(N5CC6CCC(C5)N6)nc(OCC56CCCN5CC(F)C6)nc4c3F)c12 (configuration not stated) + CN1CCN(c2cc(C(=O)Nc3cc4cc(-c5cnn(C)c5)ccc4cn3)ccn2)CC1 | > 7.50
CC(CO)NC(=O)c1cc(-c2ccc(Cl)cc2)nn(-c2cnn(C)c2)c1=O (configuration not stated) + CN1CCN(c2cc(C(=O)Nc3cc4cc(-c5cnn(C)c5)ccc4cn3)ccn2)CC1 | > 7.50
CC(Nc1ccc2c(c1)OCCn1cc(N3C(=O)OCC3C(F)F)nc1-2)C(N)=O (configuration not stated) + CN1CCN(c2cc(C(=O)Nc3cc4cc(-c5cnn(C)c5)ccc4cn3)ccn2)CC1 | > 7.50
CCN1CCN(Cc2ccc(Nc3ncc(F)c(-c4cc(F)c5nc(C)n(C(C)C)c5c4)n3)nc2)CC1 + CN1CCN(c2cc(C(=O)Nc3cc4cc(-c5cnn(C)c5)ccc4cn3)ccn2)CC1 | > 8.50
COc1c(OCCCN2CCOCC2)ccc2c3n(c(=NC(=O)c4cnc(N)nc4)nc12)CCN3 + CN1CCN(c2cc(C(=O)Nc3cc4cc(-c5cnn(C)c5)ccc4cn3)ccn2)CC1 | > 8.50

same assay, conditions: second compound 0.0316 µM; first compound 0.00316 µM; stronger effect = lower value

Structure (SMILES) | viability, T/C
CCN1CCN(Cc2ccc(Nc3ncc(F)c(-c4cc(F)c5nc(C)n(C(C)C)c5c4)n3)nc2)CC1 + CN1CCN(c2cc(C(=O)Nc3cc4cc(-c5cnn(C)c5)ccc4cn3)ccn2)CC1 | 49.6%
COc1c(OCCCN2CCOCC2)ccc2c3n(c(=NC(=O)c4cnc(N)nc4)nc12)CCN3 + CN1CCN(c2cc(C(=O)Nc3cc4cc(-c5cnn(C)c5)ccc4cn3)ccn2)CC1 | 52.3%

same assay, conditions: second compound 0.0316 µM; first compound 0.01 µM; stronger effect = lower value

Structure (SMILES) | viability, T/C
CCN1CCN(Cc2ccc(Nc3ncc(F)c(-c4cc(F)c5nc(C)n(C(C)C)c5c4)n3)nc2)CC1 + CN1CCN(c2cc(C(=O)Nc3cc4cc(-c5cnn(C)c5)ccc4cn3)ccn2)CC1 | 64.4%
COc1c(OCCCN2CCOCC2)ccc2c3n(c(=NC(=O)c4cnc(N)nc4)nc12)CCN3 + CN1CCN(c2cc(C(=O)Nc3cc4cc(-c5cnn(C)c5)ccc4cn3)ccn2)CC1 | 51.3%

same assay, conditions: second compound 0.0316 µM; first compound 0.0316 µM; stronger effect = lower value

Structure (SMILES) | viability, T/C
C#Cc1c(F)ccc2cc(O)cc(-c3ncc4c(N5CC6CCC(C5)N6)nc(OCC56CCCN5CC(F)C6)nc4c3F)c12 (configuration not stated) + CN1CCN(c2cc(C(=O)Nc3cc4cc(-c5cnn(C)c5)ccc4cn3)ccn2)CC1 | 83.1%
CC(CO)NC(=O)c1cc(-c2ccc(Cl)cc2)nn(-c2cnn(C)c2)c1=O (configuration not stated) + CN1CCN(c2cc(C(=O)Nc3cc4cc(-c5cnn(C)c5)ccc4cn3)ccn2)CC1 | 62.9%
CC(Nc1ccc2c(c1)OCCn1cc(N3C(=O)OCC3C(F)F)nc1-2)C(N)=O (configuration not stated) + CN1CCN(c2cc(C(=O)Nc3cc4cc(-c5cnn(C)c5)ccc4cn3)ccn2)CC1 | 53.4%
CCN1CCN(Cc2ccc(Nc3ncc(F)c(-c4cc(F)c5nc(C)n(C(C)C)c5c4)n3)nc2)CC1 + CN1CCN(c2cc(C(=O)Nc3cc4cc(-c5cnn(C)c5)ccc4cn3)ccn2)CC1 | 46.2%
COc1c(OCCCN2CCOCC2)ccc2c3n(c(=NC(=O)c4cnc(N)nc4)nc12)CCN3 + CN1CCN(c2cc(C(=O)Nc3cc4cc(-c5cnn(C)c5)ccc4cn3)ccn2)CC1 | 33.9%

same assay, conditions: second compound 0.0316 µM; first compound 0.1 µM; stronger effect = lower value

Structure (SMILES) | viability, T/C
C#Cc1c(F)ccc2cc(O)cc(-c3ncc4c(N5CC6CCC(C5)N6)nc(OCC56CCCN5CC(F)C6)nc4c3F)c12 (configuration not stated) + CN1CCN(c2cc(C(=O)Nc3cc4cc(-c5cnn(C)c5)ccc4cn3)ccn2)CC1 | 61%
CC(CO)NC(=O)c1cc(-c2ccc(Cl)cc2)nn(-c2cnn(C)c2)c1=O (configuration not stated) + CN1CCN(c2cc(C(=O)Nc3cc4cc(-c5cnn(C)c5)ccc4cn3)ccn2)CC1 | 71.7%
CC(Nc1ccc2c(c1)OCCn1cc(N3C(=O)OCC3C(F)F)nc1-2)C(N)=O (configuration not stated) + CN1CCN(c2cc(C(=O)Nc3cc4cc(-c5cnn(C)c5)ccc4cn3)ccn2)CC1 | 55.5%
CCN1CCN(Cc2ccc(Nc3ncc(F)c(-c4cc(F)c5nc(C)n(C(C)C)c5c4)n3)nc2)CC1 + CN1CCN(c2cc(C(=O)Nc3cc4cc(-c5cnn(C)c5)ccc4cn3)ccn2)CC1 | 36.6%
COc1c(OCCCN2CCOCC2)ccc2c3n(c(=NC(=O)c4cnc(N)nc4)nc12)CCN3 + CN1CCN(c2cc(C(=O)Nc3cc4cc(-c5cnn(C)c5)ccc4cn3)ccn2)CC1 | 13.7%

same assay, conditions: second compound 0.0316 µM; first compound 0.316 µM; stronger effect = lower value

Structure (SMILES) | viability, T/C
C#Cc1c(F)ccc2cc(O)cc(-c3ncc4c(N5CC6CCC(C5)N6)nc(OCC56CCCN5CC(F)C6)nc4c3F)c12 (configuration not stated) + CN1CCN(c2cc(C(=O)Nc3cc4cc(-c5cnn(C)c5)ccc4cn3)ccn2)CC1 | 66.3%
CC(CO)NC(=O)c1cc(-c2ccc(Cl)cc2)nn(-c2cnn(C)c2)c1=O (configuration not stated) + CN1CCN(c2cc(C(=O)Nc3cc4cc(-c5cnn(C)c5)ccc4cn3)ccn2)CC1 | 61.2%
CC(Nc1ccc2c(c1)OCCn1cc(N3C(=O)OCC3C(F)F)nc1-2)C(N)=O (configuration not stated) + CN1CCN(c2cc(C(=O)Nc3cc4cc(-c5cnn(C)c5)ccc4cn3)ccn2)CC1 | 56.8%
CCN1CCN(Cc2ccc(Nc3ncc(F)c(-c4cc(F)c5nc(C)n(C(C)C)c5c4)n3)nc2)CC1 + CN1CCN(c2cc(C(=O)Nc3cc4cc(-c5cnn(C)c5)ccc4cn3)ccn2)CC1 | 36.9%
COc1c(OCCCN2CCOCC2)ccc2c3n(c(=NC(=O)c4cnc(N)nc4)nc12)CCN3 + CN1CCN(c2cc(C(=O)Nc3cc4cc(-c5cnn(C)c5)ccc4cn3)ccn2)CC1 | 3.82%

same assay, conditions: second compound 0.0316 µM; first compound 1 µM; stronger effect = lower value

Structure (SMILES) | viability, T/C
C#Cc1c(F)ccc2cc(O)cc(-c3ncc4c(N5CC6CCC(C5)N6)nc(OCC56CCCN5CC(F)C6)nc4c3F)c12 (configuration not stated) + CN1CCN(c2cc(C(=O)Nc3cc4cc(-c5cnn(C)c5)ccc4cn3)ccn2)CC1 | 68.5%
CC(CO)NC(=O)c1cc(-c2ccc(Cl)cc2)nn(-c2cnn(C)c2)c1=O (configuration not stated) + CN1CCN(c2cc(C(=O)Nc3cc4cc(-c5cnn(C)c5)ccc4cn3)ccn2)CC1 | 78.3%
CC(Nc1ccc2c(c1)OCCn1cc(N3C(=O)OCC3C(F)F)nc1-2)C(N)=O (configuration not stated) + CN1CCN(c2cc(C(=O)Nc3cc4cc(-c5cnn(C)c5)ccc4cn3)ccn2)CC1 | 48.1%
